Test results taken from PubChem BioAssay (NCI).
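Compound exposure: 48 hours, 5 concentrations, 96-well plates. The concentration for full growth arrest is given as TGI.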

What was measured:
Experiment in all cases: DTP human tumour cell line panel, 48 h
SK-MEL-5 melanoma = test system: SK-MEL-5 melanoma
COLO 205 colon = test system: COLO 205 colon
OVCAR-5 ovarian = test system: OVCAR-5 ovarian
MDA-MB-231 breast = test system: MDA-MB-231 breast
HS 578T breast = test system: HS 578T breast
NCI-H460 lung = test system: NCI-H460 lung
K-562 leukemia = test system: K-562 leukemia
UACC-257 melanoma = test system: UACC-257 melanoma
SF-268 CNS = test system: SF-268 CNS
MOLT-4 leukemia = test system: MOLT-4 leukemia
MDA-N = test system: MDA-N
OVCAR-4 ovarian = test system: OVCAR-4 ovarian
HL-60(TB) leukemia = test system: HL-60(TB) leukemia
ACHN renal = test system: ACHN renal
UO-31 renal = test system: UO-31 renal
MDA-MB-435 = test system: MDA-MB-435
NCI-H226 lung = test system: NCI-H226 lung
PC-3 prostate = test system: PC-3 prostate
M14 melanoma = test system: M14 melanoma
MALME-3M melanoma = test system: MALME-3M melanoma
HT29 colon = test system: HT29 colon
SW-620 colon = test system: SW-620 colon
RXF 393 renal = test system: RXF 393 renal
SF-539 CNS = test system: SF-539 CNS
CCRF-CEM leukemia = test system: CCRF-CEM leukemia
HOP-62 NSCLC = test system: HOP-62 NSCLC
CAKI-1 renal = test system: CAKI-1 renal
T-47D breast = test system: T-47D breast
A549 NSCLC = test system: A549 NSCLC
786-0 renal = test system: 786-0 renal
SNB-19 CNS = test system: SNB-19 CNS
NCI-H23 lung = test system: NCI-H23 lung
SR leukemia = test system: SR leukemia
SN12C renal = test system: SN12C renal
DU-145 prostate = test system: DU-145 prostate
NCI-H522 lung = test system: NCI-H522 lung
KM12 colon = test system: KM12 colon
OVCAR-8 ovarian = test system: OVCAR-8 ovarian
SF-295 CNS = test system: SF-295 CNS
NCI/ADR-RES ovarian = test system: NCI/ADR-RES ovarian
A498 renal = test system: A498 renal
U251 CNS = test system: U251 CNS
IGROV1 ovarian = test system: IGROV1 ovarian
HCC-2998 colon = test system: HCC-2998 colon
HCT-15 colon = test system: HCT-15 colon
HOP-92 NSCLC = test system: HOP-92 NSCLC
LOX IMVI melanoma = test system: LOX IMVI melanoma
SK-MEL-28 melanoma = test system: SK-MEL-28 melanoma
HCT-116 colon = test system: HCT-116 colon
TK-10 renal = test system: TK-10 renal
SK-MEL-2 melanoma = test system: SK-MEL-2 melanoma
MCF7 breast = test system: MCF7 breast
BT-549 breast = test system: BT-549 breast
EKVX NSCLC = test system: EKVX NSCLC
SNB-75 CNS = test system: SNB-75 CNS
OVCAR-3 ovarian = test system: OVCAR-3 ovarian
SK-OV-3 ovarian = test system: SK-OV-3 ovarian
UACC-62 melanoma = test system: UACC-62 melanoma
RPMI-8226 leukemia = test system: RPMI-8226 leukemia

In the case of `COc1ccccc1Cn1nc(OC)c2cc([N+](=O)[O-])ccc21`, the TGI (SK-MEL-5 melanoma) is reported as > 100 µM, the TGI (COLO 205 colon) is reported as > 100 µM and the TGI (OVCAR-5 ovarian) is reported as > 100 µM. The TGI (MDA-MB-231 breast) was > 67.7 µM, the TGI (HS 578T breast) was > 84.7 µM and the TGI (NCI-H460 lung) was > 100 µM. The TGI (K-562 leukemia) was > 100 µM, the TGI (UACC-257 melanoma) was > 100 µM and the TGI (SF-268 CNS) was 36.9 µM. For the same compound, the TGI (MOLT-4 leukemia) was > 100 µM, the TGI (MDA-N) was > 100 µM and the TGI (OVCAR-4 ovarian) was > 100 µM. The TGI (HL-60(TB) leukemia) was > 100 µM, the TGI (ACHN renal) was > 100 µM and the TGI (UO-31 renal) was > 79.6 µM. The TGI (MDA-MB-435) was > 100 µM, the TGI (NCI-H226 lung) was > 100 µM and the TGI (PC-3 prostate) was > 100 µM. The TGI (M14 melanoma) was > 100 µM, the TGI (MALME-3M melanoma) was > 100 µM and the TGI (HT29 colon) was > 100 µM. For the same compound, the TGI (SW-620 colon) was > 100 µM, the TGI (RXF 393 renal) was 11.2 µM and the TGI (SF-539 CNS) was > 53.5 µM. The TGI (CCRF-CEM leukemia) was > 100 µM, the TGI (HOP-62 NSCLC) was 20.3 µM and the TGI (CAKI-1 renal) was > 53.6 µM. The TGI (T-47D breast) was > 100 µM, the TGI (A549 NSCLC) was > 100 µM and the TGI (786-0 renal) was > 84.7 µM. For the same compound, the TGI (SNB-19 CNS) was 41.5 µM, the TGI (NCI-H23 lung) was > 89.2 µM and the TGI (SR leukemia) was > 100 µM. For the same compound, the TGI (SN12C renal) was > 100 µM, the TGI (DU-145 prostate) was > 100 µM and the TGI (NCI-H522 lung) was > 81.3 µM. The TGI (KM12 colon) was > 100 µM, the TGI (OVCAR-8 ovarian) was > 100 µM and the TGI (SF-295 CNS) was 20 µM. The TGI (NCI/ADR-RES ovarian) was > 100 µM, the TGI (A498 renal) was 60.3 µM and the TGI (U251 CNS) was 29 µM. For the same compound, the TGI (IGROV1 ovarian) was > 100 µM, the TGI (HCC-2998 colon) was > 100 µM and the TGI (HCT-15 colon) was > 100 µM. For the same compound, the TGI (HOP-92 NSCLC) was 33.8 µM, the TGI (LOX IMVI melanoma) was > 100 µM and the TGI (SK-MEL-28 melanoma) was > 100 µM. The TGI (HCT-116 colon) was > 100 µM, the TGI (TK-10 renal) was 60.8 µM and the TGI (SK-MEL-2 melanoma) was > 57.5 µM. For the same compound, the TGI (MCF7 breast) was > 100 µM, the TGI (BT-549 breast) was 46.2 µM and the TGI (EKVX NSCLC) was > 73.6 µM. The TGI (SNB-75 CNS) was 18.7 µM and the TGI (OVCAR-3 ovarian) was > 100 µM.
For `CN(C)c1nc(-c2ccccc2)c(C(=O)c2c[nH]c3ccccc23)s1`, the TGI (SK-MEL-5 melanoma) was > 100 µM, the TGI (COLO 205 colon) was > 100 µM and the TGI (OVCAR-5 ovarian) was > 100 µM. The TGI (MDA-MB-231 breast) was > 100 µM, the TGI (HS 578T breast) was > 28.3 µM and the TGI (NCI-H460 lung) was > 79.2 µM. The TGI (K-562 leukemia) was > 100 µM, the TGI (UACC-257 melanoma) was > 100 µM and the TGI (SF-268 CNS) was > 100 µM. The TGI (MOLT-4 leukemia) was > 82.6 µM, the TGI (MDA-N) was 20.2 µM and the TGI (OVCAR-4 ovarian) was > 100 µM. For the same compound, the TGI (HL-60(TB) leukemia) was 16.5 µM, the TGI (ACHN renal) was > 100 µM and the TGI (UO-31 renal) was > 100 µM. For the same compound, the TGI (MDA-MB-435) was > 31.1 µM, the TGI (NCI-H226 lung) was > 100 µM and the TGI (PC-3 prostate) was > 100 µM. The TGI (M14 melanoma) was > 100 µM, the TGI (MALME-3M melanoma) was > 100 µM and the TGI (HT29 colon) was > 100 µM. The TGI (SW-620 colon) was > 100 µM, the TGI (SK-OV-3 ovarian) was > 100 µM and the TGI (RXF 393 renal) was > 91.5 µM. The TGI (SF-539 CNS) was > 100 µM, the TGI (CCRF-CEM leukemia) was > 60.5 µM and the TGI (HOP-62 NSCLC) was > 100 µM. For the same compound, the TGI (CAKI-1 renal) was > 100 µM, the TGI (T-47D breast) was > 100 µM and the TGI (A549 NSCLC) was > 100 µM. For the same compound, the TGI (786-0 renal) was > 47.6 µM, the TGI (SNB-19 CNS) was > 100 µM and the TGI (NCI-H23 lung) was > 100 µM. The TGI (SR leukemia) was > 100 µM, the TGI (SN12C renal) was > 100 µM and the TGI (DU-145 prostate) was > 100 µM. The TGI (NCI-H522 lung) was 10.4 µM, the TGI (KM12 colon) was > 100 µM and the TGI (OVCAR-8 ovarian) was > 100 µM. The TGI (SF-295 CNS) was > 100 µM, the TGI (NCI/ADR-RES ovarian) was > 100 µM and the TGI (A498 renal) was > 100 µM. For the same compound, the TGI (U251 CNS) was > 100 µM, the TGI (UACC-62 melanoma) was > 100 µM and the TGI (IGROV1 ovarian) was > 44.7 µM. For the same compound, the TGI (RPMI-8226 leukemia) was 32 µM, the TGI (HCC-2998 colon) was > 70.6 µM and the TGI (HCT-15 colon) was > 100 µM. For the same compound, the TGI (HOP-92 NSCLC) was > 33.2 µM, the TGI (LOX IMVI melanoma) was > 100 µM and the TGI (SK-MEL-28 melanoma) was > 100 µM. The TGI (HCT-116 colon) was > 100 µM, the TGI (TK-10 renal) was > 76.3 µM and the TGI (SK-MEL-2 melanoma) was > 100 µM. The TGI (MCF7 breast) was > 100 µM, the TGI (BT-549 breast) was > 100 µM and the TGI (EKVX NSCLC) was > 100 µM. The TGI (SNB-75 CNS) was 7.71 µM and the TGI (OVCAR-3 ovarian) was > 94.4 µM.
Work on `O=C1C=C(NCCc2cc(Br)c(O)c(Br)c2)C(=O)c2ncccc21` yielded a TGI (SK-MEL-5 melanoma) of 2.57 µM, a TGI (COLO 205 colon) of 3.25 µM and a TGI (OVCAR-5 ovarian) of 3.95 µM. It also gave a TGI (MDA-MB-231 breast) of 20.3 µM, a TGI (HS 578T breast) of 8.77 µM and a TGI (NCI-H460 lung) of 4.8 µM. It also gave a TGI (K-562 leukemia) of 10 µM, a TGI (UACC-257 melanoma) of 2.92 µM and a TGI (SF-268 CNS) of 21.9 µM. For the same compound, the TGI (MOLT-4 leukemia) was 21.9 µM, the TGI (MDA-N) was 1.23 µM and the TGI (OVCAR-4 ovarian) was 11.3 µM. The TGI (HL-60(TB) leukemia) was 16.1 µM, the TGI (ACHN renal) was 22 µM and the TGI (UO-31 renal) was 20.2 µM. For the same compound, the TGI (MDA-MB-435) was 0.723 µM, the TGI (NCI-H226 lung) was 3.72 µM and the TGI (PC-3 prostate) was 27.1 µM. It also gave a TGI (M14 melanoma) of 2.7 µM, a TGI (MALME-3M melanoma) of 2.49 µM and a TGI (HT29 colon) of 7.36 µM. The TGI (SW-620 colon) was 8.6 µM, the TGI (SK-OV-3 ovarian) was 33.4 µM and the TGI (RXF 393 renal) was 13.4 µM. It also gave a TGI (SF-539 CNS) of 2.52 µM, a TGI (CCRF-CEM leukemia) of 31.4 µM and a TGI (HOP-62 NSCLC) of 3.59 µM. It also gave a TGI (CAKI-1 renal) of 17.5 µM, a TGI (T-47D breast) of 43.4 µM and a TGI (A549 NSCLC) of 4.79 µM. For the same compound, the TGI (786-0 renal) was 13.6 µM, the TGI (SNB-19 CNS) was 8.77 µM and the TGI (NCI-H23 lung) was 1.66 µM. For the same compound, the TGI (SR leukemia) was 7.31 µM, the TGI (SN12C renal) was 2.95 µM and the TGI (DU-145 prostate) was 2.99 µM. The TGI (NCI-H522 lung) was 6.1 µM, the TGI (KM12 colon) was 23.4 µM and the TGI (OVCAR-8 ovarian) was 27.3 µM. For the same compound, the TGI (SF-295 CNS) was 2.79 µM, the TGI (NCI/ADR-RES ovarian) was 27.5 µM and the TGI (A498 renal) was 6.78 µM. The TGI (U251 CNS) was 20 µM, the TGI (UACC-62 melanoma) was 2.93 µM and the TGI (IGROV1 ovarian) was 6.31 µM. It also gave a TGI (RPMI-8226 leukemia) of 18.3 µM, a TGI (HCC-2998 colon) of 18.5 µM and a TGI (HCT-15 colon) of 18.2 µM. For the same compound, the TGI (HOP-92 NSCLC) was 25.6 µM, the TGI (LOX IMVI melanoma) was 4.97 µM and the TGI (SK-MEL-28 melanoma) was 3.5 µM. For the same compound, the TGI (HCT-116 colon) was 11.8 µM, the TGI (TK-10 renal) was 13.8 µM and the TGI (SK-MEL-2 melanoma) was 4.1 µM. The TGI (MCF7 breast) was 5.29 µM, the TGI (BT-549 breast) was 5.07 µM and the TGI (EKVX NSCLC) was 22 µM. It also gave a TGI (SNB-75 CNS) of 3.13 µM and a TGI (OVCAR-3 ovarian) of 6.88 µM.
